{"source": "patent US20040106545A1", "about": "“Compounds and methods for modulating cell adhesion” (priority 1996, published 2004)", "key": {"MDA-MB231": {"tested_on": "MDA-MB231", "type": "cell-based, human", "conditions": "3 h", "procedure,_shortened": "(§1)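 Human primary endothelial cells, fibroblast lines (IAFp2, WI-38) and cancer lines (MDA-MB231, PC-3) receive the CHAVC peptide or the CHGVC control at ≤100 μM. Viability is scored by MTT and DNA synthesis by ^3H-thymidine uptake.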"}, "PC-3": {"tested_on": "PC-3", "type": "cell-based, human", "conditions": "3 h", "procedure,_shortened": "as §1"}, "[1]": {"tested_on": "Madin Darby canine kidney (MDCK) cells", "type": "cell-based", "conditions": "for EC50, decrease of electrical resistance across MDCK cell monolayer: 18 hours", "procedure,_shortened": "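MDCK monolayers, grown in DMEM with 5% FCS from 300,000 cells per insert, exposed to modulating agent in medium (e.g., 0.5 mg/ml final for 24 hours). Transepithelial electrical resistance measured as an index of tight junction formation.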"}, "N-cadherin": {"target": "T1, N-cadherin (Gallus gallus, UniProt P10288)", "T1 construct": "expressed in transfected cells; host or cells: 3T3 fibroblasts (monolayer)", "T1 sequence (P10288 165-912)": "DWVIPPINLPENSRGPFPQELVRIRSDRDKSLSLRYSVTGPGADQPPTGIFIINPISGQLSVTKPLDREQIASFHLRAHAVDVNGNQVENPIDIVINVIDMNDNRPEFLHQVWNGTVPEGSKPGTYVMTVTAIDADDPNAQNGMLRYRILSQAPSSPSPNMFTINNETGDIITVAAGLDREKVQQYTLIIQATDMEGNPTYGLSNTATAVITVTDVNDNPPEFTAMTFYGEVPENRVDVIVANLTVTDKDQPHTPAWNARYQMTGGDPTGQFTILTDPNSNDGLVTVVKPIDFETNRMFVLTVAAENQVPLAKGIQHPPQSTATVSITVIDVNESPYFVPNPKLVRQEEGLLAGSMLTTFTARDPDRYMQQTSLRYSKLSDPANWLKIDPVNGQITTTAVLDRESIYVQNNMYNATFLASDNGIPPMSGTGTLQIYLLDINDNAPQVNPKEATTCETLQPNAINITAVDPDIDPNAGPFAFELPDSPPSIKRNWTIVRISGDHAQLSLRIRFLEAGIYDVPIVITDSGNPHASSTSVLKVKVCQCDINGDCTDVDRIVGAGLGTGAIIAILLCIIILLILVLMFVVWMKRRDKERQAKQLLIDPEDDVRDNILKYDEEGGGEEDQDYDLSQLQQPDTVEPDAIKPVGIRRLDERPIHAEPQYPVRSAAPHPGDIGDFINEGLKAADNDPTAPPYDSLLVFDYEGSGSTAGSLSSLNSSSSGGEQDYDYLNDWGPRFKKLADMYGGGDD", "assay": "Neurite outgrowth of mouse cerebellar neurons on N-cadherin expressing 3T3 monolayers (Example 2)", "type": "cell-based", "excerpt": "Within a representative neurite outgrowth assay, neurons may be cultured on a monolayer of cells (e.g., 3T3) that express N-cadherin. […] For example, neurons may be cultured on monolayers of 3T3 cells transfected with cDNA encoding N-cadherin essentially as described by Doherty and Walsh, Curr. Op. Neurobiol. 4:49-55, 1994; Williams et al., Neuron 13:583-594, 1994; Hall et al., Cell Adhesion and Commun. 3:441-450, 1996; Doherty and Walsh, Mol. Cell. Neurosci. 8:99-111, 1994; and Safell et al., Neuron 18:231-242, 1997. Briefly, monolayers of control 3T3 fibroblasts and 3T3 fibroblasts that express N-cadherin may be established by overnight culture of 80,000 cells in individual wells of an 8-chamber well tissue culture slide. 3000 cerebellar neurons isolated from post-natal day 3 mouse brains may be cultured for 18 hours on the various monolayers in control media (SATO/2% FCS), or media supplemented with various concentrations of the modulating agent or control peptide. The cultures may then be fixed and stained for GAP43 which specifically binds to the neurons and their neurites. The length of the longest neurite on each GAP43 positive neuron may be measured by computer assisted morphometry.\nNeurons were cultured on monolayers of 3T3 cells transfected with cDNA encoding N-cadherin essentially as described by Doherty and Walsh, Curr. Op. Neurobiol. 4:49-55, 1994; Williams et al., Neuron 13:583-594, 1994; Hall et al., Cell Adhesion and Commun. 3:441-450, 1996; Doherty and Walsh, Mol. Cell. Neurosci. 8:99-111, 1994; Safell et al., Neuron 18:231-242, 1997. Briefly, monolayers of control 3T3 fibroblasts and 3T3 fibroblasts that express N-cadherin were established by overnight culture of 80,000 cells in individual wells of an 8-chamber well tissue culture slide. […] The length of the longest neurite on each GAP43 positive neuron was then measured by computer assisted morphometry."}}, "note": "Positions of bridges follow the written chain, without caps; N, C: chain ends. Residues, ends and D or L forms follow the SMILES beside them.", "data": [{"smiles": "CC[C@H](C)[C@@H]1NC(=O)[C@H](CC(=O)O)NC(=O)[C@H](C(C)C)NC(=O)[C@H](C)NC(=O)[C@H](Cc2c[nH]cn2)NC(=O)[C@H](C)NC(=O)[C@@H](NC(C)=O)CSSC[C@@H](C(N)=O)NC1=O", "note": "(Ac-CAHAVDIC-NH2; disulfide 1-8)", "values": [{"measurement": "IC50", "setting": "MDA-MB231", "value": "> 100", "unit": "µM"}, {"measurement": "IC50", "setting": "PC-3", "value": "> 100", "unit": "µM"}, {"measurement": "EC50, decrease of electrical resistance across MDCK cell monolayer", "setting": "[1]", "value": "INACTIVE"}]}, {"smiles": "CC(=O)N[C@H]1CSSC[C@@H](C(N)=O)NC(=O)[C@H](CC(=O)O)NC(=O)[C@H](C(C)C)NC(=O)[C@H](C)NC(=O)[C@H](Cc2c[nH]cn2)NC(=O)[C@H](C)NC1=O", "note": "[N—Ac—CAHAVDC—NH2, N-Ac-Cys-Ala-His-Ala-Val-Asp-Cys-NH2] (Ac-CAHAVDC-NH2; disulfide 1-7)", "values": [{"measurement": "IC50", "setting": "MDA-MB231", "value": "> 100", "unit": "µM"}, {"measurement": "IC50", "setting": "PC-3", "value": "> 100", "unit": "µM"}, {"measurement": "effect on electrical resistance across MDCK cells (in words)", "setting": "[1]", "value": "complete abrogation of E-cadherin specific activity"}, {"measurement": "EC50, decrease of electrical resistance across MDCK cell monolayer", "setting": "[1]", "value": "INACTIVE"}]}, {"smiles": "CC(=O)N[C@H]1CSSC[C@@H](C(N)=O)NC(=O)[C@H](C(C)C)NC(=O)[C@H](C)NC(=O)[C@H](Cc2c[nH]cn2)NC1=O", "note": "[N—Ac—CHAVC—NH2, N-Ac-Cys-His-Ala-Val-Cys-NH2]", "values": [{"measurement": "inhibition of neurite outgrowth on 3T3 cells expressing N-cadherin", "setting": "N-cadherin; 50 μg/mL", "value": "significantly inhibited neurite outgrowth"}, {"measurement": "inhibition of neurite outgrowth on 3T3 cells expressing N-cadherin", "setting": "N-cadherin; 500 μg/mL, 18 hours", "value": "completely inhibited neurite outgrowth"}]}, {"smiles": "CC(=O)N[C@H]1CSSC[C@@H](C(N)=O)NC(=O)[C@H](C(C)C)NC(=O)CNC(=O)[C@H](Cc2c[nH]cn2)NC1=O", "note": "[N—Ac—CHGVC—NH2, reference compound]", "values": [{"measurement": "inhibition of neurite outgrowth on 3T3 cells expressing N-cadherin", "setting": "N-cadherin; 500 μg/mL, 18 hours", "value": "had no effect on this process"}]}]}
